Laboratory results taken from DBAASP.
Values after ≈ are worked out from the molar mass of the structure shown. Blank lines part the entries; values can stand above or below the compound they belong to.

How the values were obtained:
Experiment in all cases: ≥ marks a high value that may be exact or a test limit, other limits are often not marked, values filed in µg/mL are converted to µM
[1] = system: Enterobacter cloacae 218R
[2] = system: Enterococcus faecalis ATCC 29212
[3] = system: Enterococcus faecalis W61950
[4] = system: Enterococcus faecalis f43559
[5] = system: Enterococcus faecium mic80
[6] = system: Enterococcus faecium t62764
[7] = system: Escherichia coli ESBL 63103
[8] = system: Escherichia coli ESBL 64771
[9] = system: Klebsiella pneumoniae ESBL 61962
[10] = system: Klebsiella pneumoniae ESBL 63575
[11] = system: Pseudomonas aeruginosa 198
[12] = system: Pseudomonas aeruginosa 213
Pseudomonas aeruginosa 9 = system: Pseudomonas aeruginosa 9
[13] = system: Pseudomonas aeruginosa H1027
[14] = system: Pseudomonas aeruginosa H1030
[15] = system: Pseudomonas aeruginosa LES400
[16] = system: Pseudomonas aeruginosa PAO1 H103
[17] = system: Staphylococcus aureus ATCC 25923
[18] = system: Staphylococcus aureus C623
[19] = system: Stenotrophomonas maltophilia ATCC 13637
[20] = system: Bacillus subtilis ATCC 6633
Candida albicans 01U = system: Candida albicans 01U
Candida albicans 38U = system: Candida albicans 38U
[21] = system: Candida parapsilosis ATCC 22019
[22] = system: Cryptococcus neoformans L26
[23] = system: Cryptococcus neoformans L30
[24] = system: Enterococcus faecalis ATCC 12953
[25] = system: Erwinia amylovora PMV 6076
[26] = system: Escherichia coli ATCC 8739
[27] = system: Klebsiella pneumoniae ATCC 13885
[28] = system: Proteus mirabilis ATCC 25933
[29] = system: Pseudomonas aeruginosa ATCC 15442
[30] = system: Pseudomonas syringae pv. actinidiae Psa3700.1.1
[31] = system: Pseudomonas syringae pv. syringae EPS 94
[32] = system: Salmonella enterica subsp. enterica serovar Typhimurium ATCC 14028
[33] = system: Staphylococcus aureus ATCC 29213
[34] = system: Streptococcus pyogenes ATCC 19615
[35] = system: Trichophyton mentagrophytes
Trichophyton rubrum = system: Trichophyton rubrum
[36] = system: Xanthomonas arboricola pv. pruni CFBP 5563
[37] = system: Xanthomonas campestris pv. Vesicatoria 2133-2
[38] = system: Xanthomonas fragariae Xf349-9A
[39] = system: Candida albicans ATCC 36232
[40] = system: Corynebacterium diphtheriae ATCC 8024
[41] = system: Escherichia coli ATCC 2592
[42] = system: Micrococcus luteus ATCC 9341
[43] = system: Pseudomonas aeruginosa ATCC 9027
[44] = system: Shigella flexneri ATCC 203
[45] = system: Staphylococcus aureus ATCC 6538
Staphylococcus aureus = system: Staphylococcus aureus
[46] = system: Staphylococcus epidermidis ATCC 12228
[47] = system: Bacillus subtilis ATCC 23631
[48] = system: Pseudomonas aeruginosa ATCC 27553
[49] = system: Salmonella typhimurium ATCC 50013
[50] = system: Shigella dysenteriae ATCC 51302
[51] = system: Streptococcus pneumoniae ATCC 49619

MIC [1]: ≥ 226 µM | MIC [2]: > 226 µM | MIC [3]: ≥ 226 µM | MIC [4]: ≥ 226 µM | MIC [5]: ≥ 226 µM | MIC [6]: ≥ 226 µM | MIC [7]: ≥ 226 µM | MIC [8]: ≥ 226 µM | MIC [9]: ≥ 226 µM | MIC [10]: ≥ 226 µM | MIC [11]: ≥ 226 µM | MIC [12]: ≥ 226 µM | MIC (Pseudomonas aeruginosa 9): ≥ 226 µM | MIC [13]: ≥ 226 µM | MIC [14]: ≥ 226 µM | MIC [15]: ≥ 226 µM | MIC [16]: ≥ 226 µM | MIC [17]: > 226 µM | MIC [18]: ≥ 226 µM | MIC [19]: ≥ 226 µM
SMILES: CC[C@H](C)[C@H](NC(=O)[C@H](CCCN=C(N)N)NC(=O)[C@@H](N)CCCCN)C(=O)N[C@@H](CCSC)C(=O)N[C@@H](CCCCN)C(=O)N[C@@H](CC(C)C)C(=O)N[C@@H](CCCCN)C(=O)N[C@@H](CCSC)C(=O)N[C@@H](CCCN=C(N)N)C(=O)O [KRIMKLKMR]

MIC [20]: ≥ 36 µM | MIC (Candida albicans 01U): 18 µM (≈ 15.8 µg/mL) | MIC (Candida albicans 38U): 18 µM (≈ 15.8 µg/mL) | MIC [21]: ≥ 144 µM | MIC [22]: ≥ 144 µM | MIC [23]: ≥ 144 µM | MIC [24]: ≥ 36 µM | MIC [25]: ≥ 50 µM | MIC [26]: 18 µM (≈ 15.8 µg/mL) | MIC [27]: 9 µM (≈ 7.88 µg/mL) | MIC [28]: 18 µM (≈ 15.8 µg/mL) | MIC [29]: 9 µM (≈ 7.88 µg/mL) | MIC [30]: ≥ 50 µM | MIC [31]: ≥ 50 µM | MIC [32]: 18 µM (≈ 15.8 µg/mL) | MIC [33]: 18 µM (≈ 15.8 µg/mL) | MIC [34]: ≥ 36 µM | MIC [35]: 18 µM (≈ 15.8 µg/mL) | MIC (Trichophyton rubrum): 18 µM (≈ 15.8 µg/mL) | MIC [36]: ≥ 50 µM | MIC [37]: ≥ 50 µM | MIC [38]: ≥ 50 µM
SMILES: CSCC[C@H](NC(=O)CNC(=O)[C@H](CCC(N)=O)NC(=O)[C@H](C)NC(=O)[C@H](CCCN=C(N)N)NC(=O)CNC(=O)[C@H](C)NC(=O)[C@@H](NC(=O)[C@@H](N)CO)C(C)C)C(N)=O [SVAGRAQGM]

MIC [20]: ≥ 102 µM | MIC [39]: ≥ 102 µM | MIC [40]: ≥ 102 µM | MIC [41]: ≥ 102 µM | MIC [42]: ≥ 102 µM | MIC [43]: > 102 µM | MIC [44]: ≥ 102 µM | MIC [45]: > 102 µM | MIC (Staphylococcus aureus): > 102 µM | MIC [46]: > 102 µM
SMILES: CC(C)[C@H](NC(=O)[C@H](CS)NC(=O)[C@@H](NC(=O)[C@H](CCCN=C(N)N)NC(=O)[C@H](CCCCN)NC(=O)CNC(=O)[C@H](CC(N)=O)NC(=O)[C@@H](N)CS)C(C)C)C(=O)N[C@@H](CS)C(N)=O [CNGKRVCVC]

MIC [47]: 29.8 µM (≈ 24 µg/mL) | MIC [25]: ≥ 50 µM | MIC [48]: ≥ 79.6 µM | MIC [30]: ≥ 50 µM | MIC [31]: ≥ 50 µM | MIC [49]: ≥ 59.7 µM | MIC [50]: ≥ 59.7 µM | MIC [17]: 49.7 µM (≈ 40 µg/mL) | MIC [51]: ≥ 69.6 µM | MIC [36]: ≥ 50 µM | MIC [37]: ≥ 50 µM | MIC [38]: ≥ 50 µM
SMILES: CC(C)C[C@H](NC(=O)CNC(=O)[C@H](CC(C)C)NC(=O)[C@H](Cc1ccccc1)NC(=O)[C@@H](NC(=O)[C@@H](N)CCCCN)C(C)C)C(=O)N[C@@H](CCCCN)C(=O)O [KVFLGLK]
